Source: patent publication US10294272B2, “Peptides with antagonistic activities against natural CXCR4” (Pharis Biotec GmbH, priority 2013, dated 2019)
No end group written: not given here.

Assays:
CXCR4 [1] = target: T1, CXCR4 (Homo sapiens, UniProt P61073); assay: Competition with CXCL12 binding to CXCR4 (real-time fluorescence, eGFP-CXCR4 cells)
T1 construct: expressed in transfected cells
Description: Anti-human CXCR4 (clone 12G5, IgG2a) or anti-human CXCR7 (clone 9C4) monoclonal antibodies (mAbs) were purchased from R&D Systems (Minneapolis, Minn.). […] The human chemokines CXCL12 and CXCL12-TexasRed were synthesized as described (Valenzuela-Fernandez, et al. 2001). The human chemokine CXCL11 was purchased from Clinisciences SAS (France).
Experiments were performed using cells stably expressing eGFP-CXCR4, suspended in HEPES-bovine serum albumin buffer (10 mM HEPES, 137.5 mM NaCl, 1.25 mM MgCl2, 1.25 mM CaCl2, 6 mM KCl, 10 mM glucose, 0.4 mM NaH2PO4, 0.1% bovine serum albumin (w/v), pH 7.4) (typically at 10^6 cells/mL). Time-based recordings of the fluorescence emitted at 510 nm (excitation at 470 nm) were performed at 21° C. using a spectrofluorimeter and sampled every 0.3 s. Fluorescence binding measurements were initiated by adding at 30 s 100 nM of CXCL12-TR to the 1 mL cell suspension. For competition experiments, EGFP-CXCR4 expressing cells were preincubated for 10 min in the absence or presence of various concentrations of unlabelled drugs. Then, CXCL12-TR (100 nM) was added and fluorescence was recorded until equilibrium was reached (300 s). Data were analyzed using Kaleidagraph 3.08 software (Synergy Software, Reading, Pa., USA).

CXCR4 [2] = target: T2, CXCR4 (Mus musculus, UniProt P70658); assay: Asthma mouse model (OVA challenge); type: in vivo; conditions: mice, i.p., allergen challenge with OVA
T2 construct: from tissue; host or cells: live mice (C57Bl/6J for mobilization)
T2 sequence (P70658 whole entry): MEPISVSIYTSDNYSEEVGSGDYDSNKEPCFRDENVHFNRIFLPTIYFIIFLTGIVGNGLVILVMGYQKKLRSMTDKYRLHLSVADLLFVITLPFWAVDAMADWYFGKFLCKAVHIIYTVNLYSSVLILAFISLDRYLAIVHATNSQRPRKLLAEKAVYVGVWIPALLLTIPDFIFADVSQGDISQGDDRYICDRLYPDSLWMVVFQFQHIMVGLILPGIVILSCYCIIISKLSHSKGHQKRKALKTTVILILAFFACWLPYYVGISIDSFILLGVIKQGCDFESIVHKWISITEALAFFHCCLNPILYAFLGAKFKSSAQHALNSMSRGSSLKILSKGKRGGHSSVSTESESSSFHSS
Description: Mice were sensitized by intraperitoneal (i.p.) injection on days 0, 1 and 2 of 50 μg ovalbumin (OVA, Sigma-Aldrich, A5503) adsorbed on 2 mg aluminium hydroxide (Sigma-Aldrich, 23918-6) in saline. Mice were challenged by intranasal (i.n.) instillation of 10 μg OVA in 25 μl saline (12.5 μl/nostril) or saline alone for control mice on days 5, 6 and 7 under anesthesia (50 mg/kg ketamine and 3.3 mg/kg xylazine, i.p.). the peptide of SEQ ID NO 16 or ALB409-423 in saline were administered i.p. (16 μmol/kg) two hours before each OVA challenge. Bronchoalveolar lavage (BAL) and differential cell counts were performed 24 h after the last OVA challenge as previously reported in (Rebber et al., 2012).

X4 HIV-1 strains = system: X4 HIV-1 strains
Description: (§1) Antiviral screening was performed using the X4 HIV-1 NL4-3 molecular clone.
(§2) HIV-1, HIV-2 and SIV molecular clones differing in coreceptor tropism were generated by transient transfection of 293T cells with proviral DNA by the calcium phosphate method (CalPhos™ Mammalian Transfection Kit, Clon-tech). After overnight incubation, the transfection mixture was replaced by DMEM medium supplemented with 10% FCS, and virus stocks were harvested 48 hrs post-transfection. Subsequently, the culture supernatant was centrifuged for 5 min at 3000 rpm to remove cell debris. The resulting virus stock was quantified by p24 (HIV) or p27 (SIV) antigen ELISA. Virus stocks were either used immediately or stored in aliquots at −80° C.
(§3) TZM-bl reporter cells containing the LacZ reporter gene under the control of the HIV-1 promoter were seeded in 96-well F-bottom microtiter plates (Greiner Bio-One). On the following day, the cells were preincubated with various dilutions of the peptide of SEQ ID NO 16 or its derivatives for 1 hour and subsequently infected with HIV-1, HIV-2, and SIV. Infection rates were determined after 2 days using the one-step Tropix Gal-Screen Kit, as recommended by the manufacturer.

X4 tropic HIV-1 NL4-3 = conditions: blocking X4 tropic HIV-1 NL4-3 infection
Description: as §1, §2, §3

T1 sequence (P61073 whole entry): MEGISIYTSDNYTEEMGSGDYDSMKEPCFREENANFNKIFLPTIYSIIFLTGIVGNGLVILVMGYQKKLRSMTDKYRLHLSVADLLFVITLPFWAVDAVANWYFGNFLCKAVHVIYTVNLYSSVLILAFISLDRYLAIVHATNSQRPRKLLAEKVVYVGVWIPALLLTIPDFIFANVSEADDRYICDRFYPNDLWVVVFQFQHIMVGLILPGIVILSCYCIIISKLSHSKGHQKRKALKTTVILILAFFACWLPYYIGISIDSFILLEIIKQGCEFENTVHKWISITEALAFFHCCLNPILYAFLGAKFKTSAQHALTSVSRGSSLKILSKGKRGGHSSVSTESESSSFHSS

| Substance | IC50 (X4 tropic HIV-1 NL4-3) | further results |
| --- | --- | --- |
| ALB409-423: ALB409-423, which does not interact with CXCR4; control peptide in the asthma mouse model (VRYTKKVPQVSTPTL) [reference compound] |  | interaction with CXCR4 (CXCR4 [1]): does not interact; CXCR4-dependent infiltration of neutrophils, lymphocytes and eosinophils into the airways (CXCR4 [2]): no significant effects; infiltration of macrophages (CXCR4 [2]): no significant effects |
| HSA precursor: highly abundant HSA precursor; the most abundant protein in human plasma, of which the SEQ ID NO 16 peptide is a fragment |  | antiretroviral effect (X4 HIV-1 strains): no antiretroviral effect |
| LVRYTKKVPQVS [Derivative 408-419, LVRYTKKVPQVS] | 5.49 µM |  |
| LVRYTKKVPQVST [Derivative 408-420, LVRYTKKVPQVST] | 15.3 µM |  |
| LVRYTKKVPQVSTP [Derivative 408-421, LVRYTKKVPQVSTP] | 14 µM |  |
| LVRYTKKVPQVSTPT [Derivative 408-422, LVRYTKKVPQVSTPT] | 13.4 µM |  |
